One substance from patent US20130210034A1, “COMPLEX PHOSPHOPROTEIN ACTIVATION PROFILES” (BECKMAN COULTER, INC., priority 2005, published 2013) can be followed below.

Holding throughout (format): cell-based, human
The test system of assay [1] is pS6. The assay is described as follows: Phosphoprotein kinetic profiles in CD34+, CD117+ cells of AML bone marrow samples. The conditions noted are these: CD34^+, CD117^+ cells, AML1 sample (Example 6). The method, then: (§1) To assess the signal transduction response after growth factor simulation, 100 to 200 μL of processed samples including about 2×10^6 WBC/100 μL were added to tubes and incubated at 37° C. for 30 minutes. For inhibition experiments, cells were incubated with 100 μM U0126, 1 μg/mL rapamycin, or both for at least 20 minutes prior to cytokine addition and in all cases for 30 min prior to formaldehyde addition. […] After stimulation the cells were immediately fixed by the addition of formaldehyde to a final concentration of 4% v/v and incubated for 10 minutes at room temperature. Following fixation, red blood cells were lysed by the addition of TRITON-X/PBS solution (0.1% v/v final concentration Triton X-100) supplemented with a 1 x phosphatase inhibitor cocktail (PIC; final concentrations: 0.2 mM sodium orthovanadate, 2 mM sodium pyrophosphate decahydrate, 2 mM [3-glycerophosphate, and 10 mM sodium fluoride) and incubation at 37° C. for 20 minutes. The incubated solution was chilled by the addition of ice-cold Wash Buffer (final concentration 1×PBS and either 4% bovine serum albumin (BSA) or 4% heat-inactivated fetal bovine serum (FBS), supplemented with 1×PIC), and the samples were centrifuged at 300 g for 6 minutes at 4° C.). If the lysis was incomplete, samples were retreated with 0.1% Triton X-100 at 37° C. for 10 to 20 minutes. After removal of the supernatant, cells were washed twice in ice-cold Wash Buffer supplemented with 1×PIC and permeabilized by the addition of pre-chilled 80% methanol while simultaneously vortexing the tube and incubated on ice for 10 minutes. Methanol was removed by centrifugation, the pellet was washed with ice-cold 1×PBS, and non-specific binding was blocked by the addition of ice-cold Wash Buffer supplemented with 1×PIC and incubation at 4° C. for a minimum of 30 minutes.
(§2) To stain cells with fluorescent conjugated monoclonal antibodies, the incubated solution was centrifuged to remove the supernatant and the pellet was incubated for 60 minutes at 4° C. with an antibody staining solution including 0.25 μg to 0.50 μg of pS6-Pacific Blue, pERK-ALEXA 488, pSTAT5-ALEXA 647, CD34-PE, CD45-PerCP, and CD117-PC7. Samples were washed three times with ice-cold Wash Buffer supplemented with 1×PIC, resuspended in 0.5 mL ice-cold Wash Buffer supplemented with 1×PIC including 0.5 μg/mL DAPI, and analyzed by flow cytometryusing a BD LSR II Flow Cytometer, equipped with a High Throughput Sampler (HTS).
(§3) First, doublets, aggregates, and debris were excluded by gating on single cell events in the SSC-Area versus SSC-Height histogram. Then, in events passing through this gate, debris near the origin of the FSC-Area versus SSC-Area plot (gray in FIG. 4A) was excluded by drawing a gate around an area encompassing, primarily, lymphocytes, monocytes, and granulocytes (LMG, black in FIG. 4A). Next, in cells passing through the LMG gate, the blast region (circle in FIG. 4B) was identified in the CD45 versus SSC-Area histogram (FIG. 4B). From this blast population, CD34+, CD117+ cells were identified in the CD34 versus CD117 plot (boxed area in FIG. 4C). Finally, these cells were further analyzed for cytokine-mediated increases in phosphorylation by constructing gates in the single parameter histograms (for positively and negatively stained events, i.e., for the phosphorylated and non-phosphorylated forms, respectively, of each protein) for pS6 (FIGS. 4D and 4G), pERK (FIGS. 4E and 4H), and pSTAT5 (FIGS. 4F and 4I). […] The dotted lines in each of these histograms represent unstimulated cells at t=0 min. FCS files were processed with WinList 6.0 3D (Verity Software House).

Assay [2] deals with pERK. The assay is described as above. Conditions: CD34^+, CD117^+ cells, AML1 sample (Example 6). The method, then:
as §1, §2, §3

Assay [3] deals with pSTAT5. Described as above. The conditions noted are these: AML1 sample (Example 6). The protocol:
as §1, §2, §3

The test system of assay [4] is pS6. The assay is described as follows: Phosphoprotein kinetic profiles in bone marrow samples from healthy donors. The protocol:
(§4) Phosphoprotein kinetic profiles were analyzed in bone marrow aspiration samples from nine healthy, adult donors (i.e., normal bone marrow or NBM) and from five AML patients. Samples from healthy donors included 5 males and 4 females, ranging in age from 26 to 49 years. Approximately 10 to 20 mL of bone marrow (BM) samples were collected from the posterior iliac crest of the volunteers using IRB approved protocols. The BM samples were filtered using a 40 μm Nylon cell strainer to remove marrow particles and the white blood cell concentration determined using a blood analyzer. […] The samples were immediately used for subsequent experimentation.
as §1, §2
(§5) First, doublets, aggregates, and debris were excluded by gating on single cell events in the SSC-Area versus SSC-Height histogram. Then, in events passing through this gate, debris near the origin of the FSC-Area versus SSC-Area plot (gray in FIG. 4A) was excluded by drawing a gate around an area encompassing, primarily, lymphocytes, monocytes, and granulocytes (LMG, black in FIG. 4A). Next, in cells passing through the LMG gate, the blast region (circle in FIG. 4B) was identified in the CD45 versus SSC-Area histogram (FIG. 4B). From this blast population, CD34+, CD117+ cells were identified in the CD34 versus CD117 plot (boxed area in FIG. 4C).

Assay [5] concerns pERK. The assay is described as above. The method, then:
as §4, §1, §2, §5

In assay [6] the test system is pSTAT5. The assay is described as above. The protocol:
as §4, §1, §2, §5

The mark [7] stands for this setting: CD34^+, CD117^+ cells, healthy donor samples.
Where [8] appears, read: monocytes vs CD34^+, CD117^+ cells.
The mark [9] stands for this setting: monocytes, healthy donor bone marrow.

Values joined by “and” are separate entries in the source; they are usually repeats but may differ in a detail not shown here. Equal values may be shown once.

Regarding “Granulocyte-Macrophage Colony-Stimulating Factor [GM-CSF]”, in the assay on pS6 [1], the “pS6 Amp (peak amplitude of fold stimulation)” value came out at 1 and the “pS6 RI (response interval)” value worked out at 20 min. In addition, in the assay on pERK [2], the “pERK Amp (peak amplitude of fold stimulation)” value worked out at 6 and the “pERK RI (response interval)” value is reported as 10 min. Besides, in the assay on pSTAT5 [3], the “pSTAT5 Amp (peak amplitude of fold stimulation)” value is 110 and the “pSTAT5 RI (response interval)” value is given as above 60 min. Further, in the assay on pS6 [4] (setting [7]), the “pS6 Amp (peak amplitude of fold stimulation)” value was 1.8 and 1.8 ± 0.3; the “pS6 RI (response interval)” value is “Variable”. Moreover, the “pS6 maximal fold stimulation in monocytes, times the level observed in CD34^+, CD117^+ cells” value with pS6 [4] (setting [8]) is “about 100 times”. The “pS6 maximal fold stimulation” value with pS6 [4] (setting [9]) is recorded as “about 500”. In the assay on pERK [5] (setting [7]), the “pERK Amp (peak amplitude of fold stimulation)” value was 4.5 and 4.5 ± 0.6; the “pERK RI (response interval)” value is on record as “Variable”. Further, in the assay on pERK [5] (setting [9]), the “pERK maximal fold stimulation” value was “about 100”. Moreover, in the assay with pSTAT5 [6] (setting [7]), the “pSTAT5 RI (response interval)” value is given as above 60 min. For the same substance, the “pSTAT5 maximal fold stimulation in monocytes, times the level observed in CD34^+, CD117^+ cells” value in the assay with pSTAT5 [6] (setting [8]) is given as “about 500 times”. In addition, in the assay with pSTAT5 [6] (setting [9]), the “pSTAT5 maximal fold stimulation” value is listed as “approximately 10,000”.
